Assay results reported in patent US10821115B2, “Compounds that inhibit Mcl-1 protein” (priority 2017, dated 2020).
Where two headings read alike, the source gives them in different places.

Key:
[1] = target: recombinant human Mcl-1 (residues 171-327) / Bim interaction (Homo sapiens (Human), UniProt Q07820); experiment: biochemical; assay type: binding; details: read-out: Mcl-1 HTRF IC50
[2] = tested on: human multiple myeloma cell line, OPM-2; experiment: Cell viability assay (OPM-2 10 FBS), CellTiter-Glo; assay type: cell-based
Method in brief: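 3000 cells/well, RPMI 1640 + 10% FBS; serial compound dilutions, 16 h, 37 °C/5% CO2.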

[3] = TR-FRET, Mcl-1(171-327) / biotin-Bim (51-76)
[4] = Homo sapiens, OPM-2, 16 h, read-out: OPM-2 10% FBS IC50 IP, OPM-2 cells, 10% FBS, 16 h, CellTiter-Glo
[5] = 0.1 nM Mcl-1(171-327), 0.05 nM biotin-Bim (51-76)
[6] = Homo sapiens, OPM-2, 16 h, read-out: OPM-2 10% FBS IC50 IP, OPM-2 cells, 10% FBS, 16 h incubation
[7] = read-out: OPM-2 10% FBS IC50 IP, OPM-2 cells, 10% FBS, 16 h incubation

recombinant human Mcl-1 (residues 171-327) / Bim interaction, sequence (Q07820 171-327): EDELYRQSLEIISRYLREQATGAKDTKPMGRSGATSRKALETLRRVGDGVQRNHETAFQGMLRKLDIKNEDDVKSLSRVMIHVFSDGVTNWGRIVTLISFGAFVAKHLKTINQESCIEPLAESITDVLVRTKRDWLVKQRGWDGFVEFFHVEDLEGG

CO[C@@]1(Cc2nnc(C)o2)/C=C/C[C@H](C)[C@@H](C)S(=O)(=O)NC(=O)c2ccc3c(c2)N(C[C@@H]2CC[C@H]21)C[C@@]1(CCCc2cc(Cl)ccc21)CO3 [Example 100512, (1S,3′R,6′R,7′S,8′E,11′S,12′R)-6-chloro-7′-methoxy-11′,12′-dimethyl-7′-((5-methyl-1,3,4-oxadiazol-2-yl)methyl)-3,4-dihydro-2H,15′H-spiro[naphthalene-1,22′-[20]oxa[13]thia[1,14]diazatetracyclo [14.7.2.0~3,6~.0~19,24~]pentacosa[8,16,18,24]tetraen]-15′-one 13′,13′-dioxide]
IC50 [1, 3]: 0.415 nM
IC50 [2, 4]: 1490 nM

CCN1CCN(C[C@@]2(OC)/C=C/C[C@H](C)[C@@H](C)S(=O)(=O)NC(=O)c3ccc4c(c3)N(C[C@@H]3CC[C@H]32)C[C@@]2(CCCc3cc(Cl)ccc32)CO4)CC1(C)C [Example 330, (1S,3′R,6′R,7′R,8′E,11′S,12′R)-6-chloro-7′-((4-ethyl-3,3-dimethyl-1-piperazinyl)methyl)-7′-methoxy-11′,12′-dimethyl-3,4-dihydro-2H,15′H-spiro[naphthalene-1,22′-[20]oxa[13]thia[1,14]diazatetracyclo [14.7.2.0~3,6~.0~19,24~]pentacosa[8,16,18,24]tetraen]-15′-one 13′,13′-dioxide]
IC50 [1, 5]: 0.425 nM
IC50 [2, 6]: 278 nM

CCOC(=O)C(F)(F)[C@@]1(O)/C=C/C[C@H](C)[C@@H](C)S(=O)(=O)NC(=O)c2ccc3c(c2)N(C[C@@H]2CC[C@H]21)C[C@@]1(CCCc2cc(Cl)ccc21)CO3 [Example 100414, ethyl ((1S,3′R,6′R,7′R,8′E,11′S,12′R)-6-chloro-7′-hydroxy-11′,12′-dimethyl-13′,13′-dioxido-15′-oxo-3,4-dihydro-2H-spiro[naphthalene-1,22′-[20]oxa[13]thia[1,14]diazatetracyclo [14.7.2.0~3,6~.0~19,24~]pentacosa[8,16,18,24]tetraen]-7′-yl)(difluoro)acetate]
IC50 [1, 3]: 0.626 nM
IC50 [2, 4]: 1270 nM

CO[C@@]1(C)/C=C/C[C@H](C)[C@@H](CCO)S(=O)(=O)NC(=O)c2ccc3c(c2)N(C[C@@H]2CC[C@H]21)C[C@@]1(CCCc2cc(Cl)ccc21)CO3 (single isomer, unassigned) [Example 100596]
IC50 [1, 3]: 0.229 nM
IC50 ([2]; read-out: OPM-2 10% FBS IC50 IP, OPM-2 cells, 10% FBS, 16 h, CellTiter-Glo): 186 nM

COCC(COC)N1CCN(C[C@]2(OC)/C=C/C[C@H](C)[C@@H](COC)S(=O)(=O)NC(=O)c3ccc4c(c3)N(C[C@@H]3CC[C@H]32)C[C@@]2(CCCc3cc(Cl)ccc32)CO4)CC1 [Example 172, (1S,3′R,6′R,7′S,8′E,11′S,12′S)-6-chloro-7′-methoxy-7′-((4-(2-methoxy-1-(methoxymethyl)ethyl)-1-piperazinyl)methyl)-12′-(methoxymethyl)-11′-methyl-3,4-dihydro-2H,15′H-spiro[naphthalene-1,22′-[20]oxa[13]thia[1,14]diazatetracyclo [14.7.2.0~3,6~.0~19,24~]pentacosa[8,16,18,24]tetraen]-15′-one 13′,13′-dioxide]
IC50 [1, 5]: 0.137 nM
IC50 [2, 6]: 55 nM

CN[C@@H]1C[C@H](C)[C@@H](C)S(=O)(=O)NC(=O)c2ccc3c(c2)N(C[C@@H]2CC[C@H]2[C@@](C)(O)C1)C[C@@]1(CCCc2cc(Cl)ccc21)CO3 [Example 100064, (1S,3′R,6′R,7′S,9′R,11′S,12′R)-6-chloro-7′-hydroxy-7′,11′,12′-trimethyl-9′-(methylamino)-3,4-dihydro-2H,15′H-spiro[naphthalene-1,22′-[20]oxa[13]thia[1,14]diazatetracyclo [14.7.2.0~3,6~.0~19,24~]pentacosa[16,18,24]trien]-15′-one 13′,13′-dioxide]
IC50 [1, 3]: 2.54 nM
IC50 [2, 4]: 3730 nM

CC[C@@]1(O)CCC[C@H](C)[C@@H](C)S(=O)(=O)NC(=O)c2ccc3c(c2)N(C[C@@H]2CC[C@H]21)C[C@@]1(CCCc2cc(Cl)ccc21)CO3 [Example 100079, (1S,3′R,6′R,7′R,11′S,12′R)-6-chloro-7′-ethyl-7′-hydroxy-11′,12′-dimethyl-3,4-dihydro-2H,15′H-spiro[naphthalene-1,22′-[20]oxa[13]thia[1,14]diazatetracyclo [14.7.2.0~3,6~.0~19,24~]pentacosa[16,18,24]trien]-15′-one 13′,13′-dioxide]
IC50 [1, 3]: 0.343 nM
IC50 [2, 4]: 713 nM

CO[C@@]1(CN2CCN3CCOC[C@@H]3C2)/C=C/C[C@H](C)[C@@H](Cc2ccccc2)S(=O)(=O)NC(=O)c2ccc3c(c2)N(C[C@@H]2CC[C@H]21)C[C@@]1(CCCc2cc(Cl)ccc21)CO3 (single isomer, unassigned) [Example 102]
IC50 [1, 5]: 0.182 nM
IC50 [2, 7]: 416 nM

COCCN(CCOC)C1CN(C[C@]2(OC)/C=C/C[C@H](C)[C@@H](C)S(=O)(=O)NC(=O)c3ccc4c(c3)N(C[C@@H]3CC[C@H]32)C[C@@]2(CCCc3cc(Cl)ccc32)CO4)C1 [Example 344, (1S,3′R,6′R,7′S,8′E,11′S,12′R)-7′-((3-(bis(2-methoxyethyl)amino)-1-azetidinyl)methyl)-6-chloro-7′-methoxy-11′,12′-dimethyl-3,4-dihydro-2H,15′H-spiro[naphthalene-1,22′-[20]oxa[13]thia[1,14]diazatetracyclo [14.7.2.0~3,6~.0~19,24~]pentacosa[8,16,18,24]tetraen]-15′-one 13′,13′-dioxide]
IC50 [1, 5]: 0.116 nM
IC50 [2, 6]: 57 nM

CO[C@]1(CN2CCN3CCS(=O)(=O)C[C@@H]3C2)/C=C/C[C@H](C)[C@@H](C)S(=O)(=O)NC(=O)c2ccc3c(c2)N(C[C@@H]2CC[C@H]21)C[C@@]1(CCCc2cc(Cl)ccc21)CO3 (single isomer, unassigned) [Example 220]
IC50 [1, 5]: 0.052 nM
IC50 [2, 7]: 42 nM

CCOC(=O)CN1CCN(C[C@]2(OC)/C=C/C[C@H](C)[C@@H](C)S(=O)(=O)NC(=O)c3ccc4c(c3)N(C[C@@H]3CC[C@H]32)C[C@@]2(CCCc3cc(Cl)ccc32)CO4)CC1 [Example 261, ethyl (4-(((1S,3′R,6′R,7′S,8′E,11′S, 12′R)-6-chloro-7′-methoxy-11′,12′-dimethyl-13′,13′-dioxido-15′-oxo-3,4-dihydro-2H-spiro[naphthalene-1,22′-[20]oxa[13]thia[1,14]diazatetracyclo [14.7.2.0~3,6~.0~19,24~]pentacosa[8,16,18,24]tetraen]-7′-yl)methyl)-1-piperazinyl)acetate]
IC50 [1, 5]: 0.153 nM
IC50 [2, 6]: 146 nM

CCO[C@]1(CN2CCN(C3COC3)CC2)/C=C/C[C@H](C)[C@@H](COC)S(=O)(=O)NC(=O)c2ccc3c(c2)N(C[C@@H]2CC[C@H]21)C[C@@]1(CCCc2cc(Cl)ccc21)CO3 [Example 175]
IC50 [1, 5]: 0.069 nM
IC50 [2, 6]: 64 nM

COCCN1CCN(C[C@]2(OC)/C=C/C[C@H](C)[C@@H](C)S(=O)(=O)NC(=O)c3ccc4c(c3)N(C[C@@H]3CC[C@H]32)C[C@@]2(CCCc3cc(Cl)ccc32)CO4)CC1(C)C [Example 334, (1S,3′R,6′R,7′S,8′E,11′S,12′R)-6-chloro-7′-methoxy-7′-((4-(2-methoxyethyl)-3,3-dimethyl-1-piperazinyl)methyl)-11′,12′-dimethyl-3,4-dihydro-2H,15′H-spiro[naphthalene-1,22′-[20]oxa[13]thia[1,14]diazatetracyclo [14.7.2.0~3,6~.0~19,24~]pentacosa[8,16,18,24]tetraen]-15′-one 13′,13′-dioxide]
IC50 [1, 5]: 0.186 nM
IC50 [2, 6]: 159 nM

C[C@@H]1[C@@H](C)C/C=C/[C@](O)(CC(=O)N(C)c2ccccc2)[C@@H]2CC[C@H]2CN2C[C@@]3(CCCc4cc(Cl)ccc43)COc3ccc(cc32)C(=O)NS1(=O)=O (single isomer, unassigned) [Example 100248]
IC50 [1, 3]: 11.1 nM
IC50 [2, 4]: 6680 nM

CO[C@@]1(CN2CCN3CCOC[C@@H]3C2)/C=C/C[C@H](C)[C@@H](CC2CCC2)S(=O)(=O)NC(=O)c2ccc3c(c2)N(C[C@@H]2CC[C@H]21)C[C@@]1(CCCc2cc(Cl)ccc21)CO3 [Example 39, (1S,3′R,6′R,7′S,8′E,11′S,12′R)-6-chloro-12′-(cyclobutylmethyl)-7′-((9aS)-hexahydropyrazino[2,1-c][1,4]oxazin-8(1H)-ylmethyl)-7′-methoxy-11′-methyl-3,4-dihydro-2H,15′H-spiro[naphthalene-1,22′-[20]oxa[13]thia[1,14]diazatetracyclo [14.7.2.0~3,6~.0~19,24~]pentacosa[8,16,18,24]tetraen]-15′-one 13′,13′-dioxide]
IC50 [1, 5]: 0.377 nM
IC50 [2, 6]: 389 nM

C[C@@H]1[C@@H](C)C/C=C/[C@@](C)(OCc2cc(F)cc(F)c2)[C@@H]2CC[C@H]2CN2C[C@@]3(CCCc4cc(Cl)ccc43)COc3ccc(cc32)C(=O)NS1(=O)=O (single isomer, unassigned) [Example 100474]
IC50 [1, 3]: 0.405 nM
IC50 [2, 4]: 387 nM

CO[C@@]1(C(C)(C)O)/C=C/C[C@H](C)[C@@H](C)S(=O)(=O)NC(=O)c2ccc3c(c2)N(C[C@@H]2CC[C@H]21)C[C@@]1(CCCc2cc(Cl)ccc21)CO3 [Example 100404, (1S,3′R,6′R,7′S,8′E,11′S,12′R)-6-chloro-7′-(2-hydroxy-2-propanyl)-7′-methoxy-11′,12′-dimethyl-3,4-dihydro-2H,15′H-spiro[naphthalene-1,22′-[20]oxa[13]thia[1,14]diazatetracyclo [14.7.2.0~3,6~.0~19,24~]pentacosa[8,16,18,24]tetraen]-15′-one 13′,13′-dioxide]
IC50 [1, 3]: 2.55 nM
IC50 [2, 4]: 8150 nM
